Measured values reported in BigSolDB 2.1.

CC[C@H]1OC(=O)[C@H](C)[C@@H](O[C@H]2C[C@@](C)(OC)[C@@H](O)[C@H](C)O2)[C@H](C)[C@@H](O[C@@H]2O[C@H](C)C[C@H](N(C)C)[C@H]2O)[C@](C)(O)C[C@@H](C)C(=O)[C@H](C)[C@@H](O)[C@]1(C)O.N#CS.O.O
solubility (mole fraction)
Details | 288.15 K | 293.15 K | 298.15 K | 303.15 K | 308.15 K | 313.15 K | 318.15 K
in ethanol | 0.00426 | 0.00475 | 0.00525 | 0.00586 | 0.00679 | 0.00767 | 0.00856
in isopropanol | 0.00104 | 0.00121 | 0.00136 | 0.00157 | 0.00175 | 0.002 | 0.00227
in methanol | 0.0119 | 0.0128 | 0.0144 | 0.0158 | 0.0173 | 0.0189 | 0.0203
in n-propanol | 0.00409 | 0.00437 | 0.00488 | 0.00567 | 0.00643 | 0.00725 | 0.00841
